# Data published in patent publication US7754946B2, “Stem-regulated, plant defense promoter and uses thereof in tissue-specific expression in monocots” (The Texas A&M University System, priority 2003, dated 2010).
# System: JAS
# Assay: Microarray of JAS cDNA clones after spraying sugarcane plants with defense-inducing agents
# Assay type: in vivo
# Conditions: treated v. untreated plant
# Experimental: The 251 cDNA clones used for microarray analysis in Example 1 were further used to assess the effects of defense-inducing agents on the expression of the stem-specific genes.
# Total RNA was extracted from wild type sugarcane plants (3 months-old) that were sprayed with the defense-inducing agents jasmonic acid (JA) (25·mu·M in 0.05.percent.Tween 20), methyl-jasmonate (MeJA) (200·mu·M in 0.1.percent.ethanol and 0.05.percent.Tween 20) or salicylic acid (SA) (5 mM in 0.05.percent.Tween 20) for two time periods, 24 and 48 hours. The microarray including 251 cDNAs was probed with fluorescently labeled cDNAs synthesized from 1·mu·g of total amplified RNA. One cDNA probe (e.g. RNA from plant treated with a defense-inducing agent) is labeled with one dye (Cy5), and the second (e.g. RNA from untreated control plant) with another dye (Cy3)
# Microarray data was analyzed using GeneSpring analysis software. Data were normalized using an endogenous constitutive gene. The normalized ratio of Cy5 v.
structure (smiles),measurement,setting,value
"CC/C=C\C[C@H]1C(=O)CC[C@@H]1CC(=O)O [JA, jasmonic acid]",Cy5/Cy3 Ratios (Upregulation) for JAS,"clone 2I1, JA 25 μM spray, 24 hours",0.59
same,Cy5/Cy3 Ratios (Upregulation) for JAS,"clone 2I1, JA 25 μM spray, 48 hours",2.10
same,Cy5/Cy3 Ratios (Upregulation) for JAS,"clone 4Q3, JA 25 μM spray, 24 hours",0.41
same,Cy5/Cy3 Ratios (Upregulation) for JAS,"clone 4Q3, JA 25 μM spray, 48 hours",2.12
same,Cy5/Cy3 Ratios (Upregulation) for JAS,"clone 5P22, JA 25 μM spray, 24 hours",0.41
same,Cy5/Cy3 Ratios (Upregulation) for JAS,"clone 5P22, JA 25 μM spray, 48 hours",2.10
same,Cy5/Cy3 Ratios (Upregulation) for JAS,"clone 6H10, JA 25 μM spray, 24 hours",0.42
same,Cy5/Cy3 Ratios (Upregulation) for JAS,"clone 6H10, JA 25 μM spray, 48 hours",2.19
same,Cy5/Cy3 Ratios (Upregulation) for JAS,"clone 10P7, JA 25 μM spray, 24 hours",0.59
same,Cy5/Cy3 Ratios (Upregulation) for JAS,"clone 10P7, JA 25 μM spray, 48 hours",2.10
same,Cy5/Cy3 Ratios (Upregulation) for JAS,"clone 12F18, JA 25 μM spray, 24 hours",0.51
same,Cy5/Cy3 Ratios (Upregulation) for JAS,"clone 12F18, JA 25 μM spray, 48 hours",1.64
same,Cy5/Cy3 Ratios (Upregulation) for JAS,"clone 13F16, JA 25 μM spray, 24 hours",0.51
same,Cy5/Cy3 Ratios (Upregulation) for JAS,"clone 13F16, JA 25 μM spray, 48 hours",2.21
same,Cy5/Cy3 Ratios (Upregulation) for JAS,"clone 17C11, JA 25 μM spray, 24 hours",0.35
same,Cy5/Cy3 Ratios (Upregulation) for JAS,"clone 17C11, JA 25 μM spray, 48 hours",2.12
same,Cy5/Cy3 Ratios (Upregulation) for JAS,"clone 18H16, JA 25 μM spray, 24 hours",1.90
same,Cy5/Cy3 Ratios (Upregulation) for JAS,"clone 18H16, JA 25 μM spray, 48 hours",1.40
same,Cy5/Cy3 Ratios (Upregulation) for JAS,"clone 20F18, JA 25 μM spray, 24 hours",0.34
same,Cy5/Cy3 Ratios (Upregulation) for JAS,"clone 20F18, JA 25 μM spray, 48 hours",2.00
same,Cy5/Cy3 Ratios (Upregulation) for JAS,"clone 20G16, JA 25 μM spray, 24 hours",0.85
same,Cy5/Cy3 Ratios (Upregulation) for JAS,"clone 20G16, JA 25 μM spray, 48 hours",1.30
same,Cy5/Cy3 Ratios (Upregulation) for JAS,"clone 24G4, JA 25 μM spray, 24 hours",0.41
same,Cy5/Cy3 Ratios (Upregulation) for JAS,"clone 24G4, JA 25 μM spray, 48 hours",1.14
same,Cy5/Cy3 Ratios (Upregulation) for JAS,"clone 25K14, JA 25 μM spray, 24 hours",1.73
same,Cy5/Cy3 Ratios (Upregulation) for JAS,"clone 25K14, JA 25 μM spray, 48 hours",1.65
"CC/C=C\CC1C(=O)CCC1CC(=O)OC (stereo not shown) [MeJA, methyl-jasmonate]",Cy5/Cy3 Ratios (Upregulation) for JAS,"clone 2I1, MeJA 200 μM spray, 24 hours",0.27
same,Cy5/Cy3 Ratios (Upregulation) for JAS,"clone 2I1, MeJA 200 μM spray, 48 hours",0.22
same,Cy5/Cy3 Ratios (Upregulation) for JAS,"clone 4Q3, MeJA 200 μM spray, 24 hours",0.15
same,Cy5/Cy3 Ratios (Upregulation) for JAS,"clone 4Q3, MeJA 200 μM spray, 48 hours",0.18
same,Cy5/Cy3 Ratios (Upregulation) for JAS,"clone 5P22, MeJA 200 μM spray, 24 hours",0.16
same,Cy5/Cy3 Ratios (Upregulation) for JAS,"clone 5P22, MeJA 200 μM spray, 48 hours",0.17
same,Cy5/Cy3 Ratios (Upregulation) for JAS,"clone 6H10, MeJA 200 μM spray, 24 hours",0.15
same,Cy5/Cy3 Ratios (Upregulation) for JAS,"clone 6H10, MeJA 200 μM spray, 48 hours",0.19
same,Cy5/Cy3 Ratios (Upregulation) for JAS,"clone 10P7, MeJA 200 μM spray, 24 hours",0.13
same,Cy5/Cy3 Ratios (Upregulation) for JAS,"clone 10P7, MeJA 200 μM spray, 48 hours",0.15
same,Cy5/Cy3 Ratios (Upregulation) for JAS,"clone 12F18, MeJA 200 μM spray, 24 hours",0.20
same,Cy5/Cy3 Ratios (Upregulation) for JAS,"clone 12F18, MeJA 200 μM spray, 48 hours",0.21
same,Cy5/Cy3 Ratios (Upregulation) for JAS,"clone 13F16, MeJA 200 μM spray, 24 hours",0.25
same,Cy5/Cy3 Ratios (Upregulation) for JAS,"clone 13F16, MeJA 200 μM spray, 48 hours",0.34
same,Cy5/Cy3 Ratios (Upregulation) for JAS,"clone 17C11, MeJA 200 μM spray, 24 hours",0.17
same,Cy5/Cy3 Ratios (Upregulation) for JAS,"clone 17C11, MeJA 200 μM spray, 48 hours",0.17
same,Cy5/Cy3 Ratios (Upregulation) for JAS,"clone 18H16, MeJA 200 μM spray, 24 hours",3.00
same,Cy5/Cy3 Ratios (Upregulation) for JAS,"clone 18H16, MeJA 200 μM spray, 48 hours",0.79
same,Cy5/Cy3 Ratios (Upregulation) for JAS,"clone 20F18, MeJA 200 μM spray, 24 hours",0.16
same,Cy5/Cy3 Ratios (Upregulation) for JAS,"clone 20F18, MeJA 200 μM spray, 48 hours",0.18
same,Cy5/Cy3 Ratios (Upregulation) for JAS,"clone 20G16, MeJA 200 μM spray, 24 hours",0.50
same,Cy5/Cy3 Ratios (Upregulation) for JAS,"clone 20G16, MeJA 200 μM spray, 48 hours",0.49
same,Cy5/Cy3 Ratios (Upregulation) for JAS,"clone 24G4, MeJA 200 μM spray, 24 hours",0.37
same,Cy5/Cy3 Ratios (Upregulation) for JAS,"clone 24G4, MeJA 200 μM spray, 48 hours",0.41
same,Cy5/Cy3 Ratios (Upregulation) for JAS,"clone 25K14, MeJA 200 μM spray, 24 hours",3.07
same,Cy5/Cy3 Ratios (Upregulation) for JAS,"clone 25K14, MeJA 200 μM spray, 48 hours",1.02
"O=C(O)c1ccccc1O [SA, salicylic acid]",Cy5/Cy3 Ratios (Upregulation) for JAS,"clone 2I1, SA 5 mM spray, 48 hours",16.92
same,Cy5/Cy3 Ratios (Upregulation) for JAS,"clone 4Q3, SA 5 mM spray, 48 hours",15.26
same,Cy5/Cy3 Ratios (Upregulation) for JAS,"clone 5P22, SA 5 mM spray, 48 hours",18.08
same,Cy5/Cy3 Ratios (Upregulation) for JAS,"clone 6H10, SA 5 mM spray, 48 hours",19.22
same,Cy5/Cy3 Ratios (Upregulation) for JAS,"clone 10P7, SA 5 mM spray, 48 hours",20.96
same,Cy5/Cy3 Ratios (Upregulation) for JAS,"clone 12F18, SA 5 mM spray, 48 hours",17.54
same,Cy5/Cy3 Ratios (Upregulation) for JAS,"clone 17C11, SA 5 mM spray, 48 hours",18.83
same,Cy5/Cy3 Ratios (Upregulation) for JAS,"clone 18H16, SA 5 mM spray, 48 hours",0.70
same,Cy5/Cy3 Ratios (Upregulation) for JAS,"clone 20F18, SA 5 mM spray, 48 hours",19.54
same,Cy5/Cy3 Ratios (Upregulation) for JAS,"clone 20G16, SA 5 mM spray, 48 hours",13.81
same,Cy5/Cy3 Ratios (Upregulation) for JAS,"clone 24G4, SA 5 mM spray, 48 hours",7.73
same,Cy5/Cy3 Ratios (Upregulation) for JAS,"clone 25K14, SA 5 mM spray, 48 hours",0.70
